Measurements from ChEMBL document CHEMBL3885881, “DrugMatrix”.

Organism: Rattus norvegicus
Test: DrugMatrix - Regimen: Daily Repeat
Type: toxicity, organism-based, Sprague-Dawley
Set-up: regimen Daily Repeat, gender Male, age 6-8 weeks
Conditions: in vivo, po, route oral GAVAGE, vehicle .5 % CMC; for ABSOLUTE BASOPHIL / ABSOLUTE EOSINOPHIL / ABSOLUTE LYMPHOCYTE / ABSOLUTE MONOCYTE / ABSOLUTE SEGMENTED NEUTROPHIL / BASOPHIL / EOSINOPHIL / ERYTHROCYTE COUNT / HEMATOCRIT / HEMOGLOBIN / LEUKOCYTE COUNT / LYMPHOCYTE / MEAN CORPUSCULAR HEMOGLOBIN / MEAN CORPUSCULAR HEMOGLOBIN CONCENTRATION / MEAN CORPUSCULAR VOLUME / MONOCYTE / NEUTROPHIL / NUCLEATED RED BLOOD CELLS / PLATELET COUNT: tissue Blood; for ALANINE AMINOTRANSFERASE / ALBUMIN / ALKALINE PHOSPHATASE / ASPARTATE AMINOTRANSFERASE / BLOOD UREA NITROGEN / CARBON DIOXIDE / CHLORIDE / CHOLESTEROL / CREATINE PHOSPHOKINASE / CREATININE / GLUCOSE / LACTATE DEHYDROGENASE / LIPASE / PHOSPHORUS / POTASSIUM / SODIUM / TOTAL BILIRUBIN / TOTAL PROTEIN / URIC ACID: tissue Plasma
[1] = 50 mg/kg, 120 h, dose level Low, time 5 day
[2] = 1500 mg/kg, 72 h, dose level High, time 3 day
[3] = 1500 mg/kg, 120 h, dose level High, time 5 day

Question: How did the “ABSOLUTE BASOPHIL” value [1] turn out when `CN(C)[C@@H]1C(O)=C(C(N)=O)C(=O)[C@@]2(O)C(O)=C3C(=O)c4c(O)ccc(Cl)c4[C@@](C)(O)[C@H]3C[C@@H]12` [CHLORTETRACYCLINE] was run?
Answer: 0 CELLS/uL

Question: What about the “ABSOLUTE EOSINOPHIL” value [1] of the same compound?
Answer: 0 CELLS/uL

Question: And the “ABSOLUTE LYMPHOCYTE” value [1]?
Answer: 12641 CELLS/uL

Question: And the “ABSOLUTE MONOCYTE” value [1]?
Answer: 0 CELLS/uL

Question: What about the “ABSOLUTE SEGMENTED NEUTROPHIL” value [1] of the same compound?
Answer: 859 CELLS/uL

Question: And the BASOPHIL [1]?
Answer: 0%

Question: What about the EOSINOPHIL [1] of the same compound?
Answer: 0%

Question: And the “ERYTHROCYTE COUNT” value [1]?
Answer: 5.53 x10E6/uL

Question: What about the HEMATOCRIT [1] of the same compound?
Answer: 33.27%

Question: And the HEMOGLOBIN [1]?
Answer: 13.43 G/DL

Question: What about the “LEUKOCYTE COUNT” value [1] of the same compound?
Answer: 13.5 x10E3/uL

Question: And the LYMPHOCYTE [1]?
Answer: 93.33%

Question: And the “MEAN CORPUSCULAR HEMOGLOBIN” value [1]?
Answer: 24.33 pg

Question: What about the “MEAN CORPUSCULAR HEMOGLOBIN CONCENTRATION” value [1] of the same compound?
Answer: 40.4 G/DL

Question: What about the “MEAN CORPUSCULAR VOLUME” value [1] of the same compound?
Answer: 60.17 fL

Question: And the MONOCYTE [1]?
Answer: 0%

Question: And the NEUTROPHIL [1]?
Answer: 6.67%

Question: And the “NUCLEATED RED BLOOD CELLS” value [1]?
Answer: 0 /100WBC

Question: And the “PLATELET COUNT” value [1]?
Answer: 1240.33 x10E3/uL

Question: And the “ALANINE AMINOTRANSFERASE” value [1]?
Answer: 54 u/L

Question: What about the ALBUMIN [1] of the same compound?
Answer: 4.03 G/DL

Question: And the “ALKALINE PHOSPHATASE” value [1]?
Answer: 291.33 u/L

Question: And the “ASPARTATE AMINOTRANSFERASE” value [1]?
Answer: 84 u/L

Question: And the “BLOOD UREA NITROGEN” value [1]?
Answer: 17.33 mg/dL

Question: What about the “CARBON DIOXIDE” value [1] of the same compound?
Answer: 22.67 mmol/L

Question: What about the CHLORIDE [1] of the same compound?
Answer: 103.33 MEQ/L

Question: And the CHOLESTEROL [1]?
Answer: 58.33 mg/dL

Question: And the “CREATINE PHOSPHOKINASE” value [1]?
Answer: 329.33 u/L

Question: And the CREATININE [1]?
Answer: 0.2 mg/dL

Question: What about the GLUCOSE [1] of the same compound?
Answer: 159.67 mg/dL

Question: What about the “LACTATE DEHYDROGENASE” value [1] of the same compound?
Answer: 155.33 u/L

Question: What about the LIPASE [1] of the same compound?
Answer: 9.33 u/L

Question: What about the PHOSPHORUS [1] of the same compound?
Answer: 12.97 mg/dL

Question: And the POTASSIUM [1]?
Answer: 6.97 MEQ/L

Question: And the SODIUM [1]?
Answer: 144.3 MEQ/L

Question: What about the “TOTAL BILIRUBIN” value [1] of the same compound?
Answer: 0.17 mg/dL

Question: And the “TOTAL PROTEIN” value [1]?
Answer: 5.73 G/DL

Question: What about the “URIC ACID” value [1] of the same compound?
Answer: 2.13 mg/dL

Question: And the “ABSOLUTE BASOPHIL” value [2]?
Answer: 0 CELLS/uL

Question: What about the “ABSOLUTE EOSINOPHIL” value [2] of the same compound?
Answer: 19 CELLS/uL

Question: And the “ABSOLUTE LYMPHOCYTE” value [2]?
Answer: 5616.67 CELLS/uL

Question: What about the “ABSOLUTE MONOCYTE” value [2] of the same compound?
Answer: 262.67 CELLS/uL

Question: What about the “ABSOLUTE SEGMENTED NEUTROPHIL” value [2] of the same compound?
Answer: 601.67 CELLS/uL

Question: And the BASOPHIL [2]?
Answer: 0%

Question: And the EOSINOPHIL [2]?
Answer: 0.33%

Question: And the “ERYTHROCYTE COUNT” value [2]?
Answer: 5.83 x10E6/uL

Question: What about the HEMATOCRIT [2] of the same compound?
Answer: 36%

Question: What about the HEMOGLOBIN [2] of the same compound?
Answer: 14.6 G/DL

Question: And the “LEUKOCYTE COUNT” value [2]?
Answer: 6.5 x10E3/uL

Question: What about the LYMPHOCYTE [2] of the same compound?
Answer: 86%

Question: What about the “MEAN CORPUSCULAR HEMOGLOBIN” value [2] of the same compound?
Answer: 25.13 pg

Question: What about the “MEAN CORPUSCULAR HEMOGLOBIN CONCENTRATION” value [2] of the same compound?
Answer: 40.57 G/DL

Question: And the “MEAN CORPUSCULAR VOLUME” value [2]?
Answer: 61.8 fL

Question: What about the MONOCYTE [2] of the same compound?
Answer: 4%

Question: And the NEUTROPHIL [2]?
Answer: 9.67%

Question: And the “NUCLEATED RED BLOOD CELLS” value [2]?
Answer: 0 /100WBC

Question: And the “PLATELET COUNT” value [2]?
Answer: 1359 x10E3/uL

Question: And the “ALANINE AMINOTRANSFERASE” value [2]?
Answer: 54 u/L

Question: What about the ALBUMIN [2] of the same compound?
Answer: 4.27 G/DL

Question: What about the “ALKALINE PHOSPHATASE” value [2] of the same compound?
Answer: 407 u/L

Question: What about the “ASPARTATE AMINOTRANSFERASE” value [2] of the same compound?
Answer: 99.33 u/L

Question: And the “BLOOD UREA NITROGEN” value [2]?
Answer: 17 mg/dL

Question: And the “CARBON DIOXIDE” value [2]?
Answer: 25 mmol/L

Question: And the CHLORIDE [2]?
Answer: 104.33 MEQ/L

Question: And the CHOLESTEROL [2]?
Answer: 70.33 mg/dL

Question: And the “CREATINE PHOSPHOKINASE” value [2]?
Answer: 633 u/L

Question: What about the CREATININE [2] of the same compound?
Answer: 0.16 mg/dL

Question: And the GLUCOSE [2]?
Answer: 163.67 mg/dL

Question: What about the “LACTATE DEHYDROGENASE” value [2] of the same compound?
Answer: 129.67 u/L

Question: And the LIPASE [2]?
Answer: 9.33 u/L

Question: What about the PHOSPHORUS [2] of the same compound?
Answer: 12.37 mg/dL

Question: And the POTASSIUM [2]?
Answer: 5.95 MEQ/L

Question: And the SODIUM [2]?
Answer: 148.37 MEQ/L

Question: And the “TOTAL BILIRUBIN” value [2]?
Answer: 0.23 mg/dL

Question: And the “TOTAL PROTEIN” value [2]?
Answer: 6 G/DL

Question: What about the “URIC ACID” value [2] of the same compound?
Answer: 1.87 mg/dL

Question: What about the “ABSOLUTE BASOPHIL” value [3] of the same compound?
Answer: 0 CELLS/uL

Question: What about the “ABSOLUTE EOSINOPHIL” value [3] of the same compound?
Answer: 167.33 CELLS/uL

Question: And the “ABSOLUTE LYMPHOCYTE” value [3]?
Answer: 18100 CELLS/uL

Question: What about the “ABSOLUTE MONOCYTE” value [3] of the same compound?
Answer: 0 CELLS/uL

Question: And the “ABSOLUTE SEGMENTED NEUTROPHIL” value [3]?
Answer: 1266 CELLS/uL

Question: And the BASOPHIL [3]?
Answer: 0%

Question: And the EOSINOPHIL [3]?
Answer: 0.67%

Question: What about the “ERYTHROCYTE COUNT” value [3] of the same compound?
Answer: 5.62 x10E6/uL

Question: What about the HEMATOCRIT [3] of the same compound?
Answer: 34.33%

Question: What about the HEMOGLOBIN [3] of the same compound?
Answer: 13.93 G/DL

Question: What about the “LEUKOCYTE COUNT” value [3] of the same compound?
Answer: 19.53 x10E3/uL

Question: What about the LYMPHOCYTE [3] of the same compound?
Answer: 92.67%

Question: And the “MEAN CORPUSCULAR HEMOGLOBIN” value [3]?
Answer: 24.83 pg

Question: And the “MEAN CORPUSCULAR HEMOGLOBIN CONCENTRATION” value [3]?
Answer: 40.6 G/DL

Question: What about the “MEAN CORPUSCULAR VOLUME” value [3] of the same compound?
Answer: 61.17 fL

Question: What about the MONOCYTE [3] of the same compound?
Answer: 0%

Question: And the NEUTROPHIL [3]?
Answer: 6.67%

Question: And the “NUCLEATED RED BLOOD CELLS” value [3]?
Answer: 0.33 /100WBC

Question: And the “PLATELET COUNT” value [3]?
Answer: 1340 x10E3/uL

Question: What about the “ALANINE AMINOTRANSFERASE” value [3] of the same compound?
Answer: 61.33 u/L

Question: And the ALBUMIN [3]?
Answer: 3.73 G/DL

Question: And the “ALKALINE PHOSPHATASE” value [3]?
Answer: 422.33 u/L

Question: What about the “ASPARTATE AMINOTRANSFERASE” value [3] of the same compound?
Answer: 86.33 u/L

Question: And the “BLOOD UREA NITROGEN” value [3]?
Answer: 19.67 mg/dL

Question: What about the “CARBON DIOXIDE” value [3] of the same compound?
Answer: 28.67 mmol/L

Question: What about the CHLORIDE [3] of the same compound?
Answer: 100.67 MEQ/L

Question: And the CHOLESTEROL [3]?
Answer: 57 mg/dL

Question: What about the “CREATINE PHOSPHOKINASE” value [3] of the same compound?
Answer: 301.67 u/L

Question: What about the CREATININE [3] of the same compound?
Answer: 0.19 mg/dL

Question: And the GLUCOSE [3]?
Answer: 151.33 mg/dL

Question: And the “LACTATE DEHYDROGENASE” value [3]?
Answer: 67 u/L

Question: What about the LIPASE [3] of the same compound?
Answer: 10.33 u/L

Question: And the PHOSPHORUS [3]?
Answer: 11.03 mg/dL

Question: And the POTASSIUM [3]?
Answer: 5.95 MEQ/L

Question: And the SODIUM [3]?
Answer: 144.1 MEQ/L

Question: What about the “TOTAL BILIRUBIN” value [3] of the same compound?
Answer: 0.17 mg/dL

Question: And the “TOTAL PROTEIN” value [3]?
Answer: 5.23 G/DL

Question: What about the “URIC ACID” value [3] of the same compound?
Answer: 1.57 mg/dL
